Source: the NIST ThermoML archive (doi:10.1021/acs.jced.5b00197)

Test: refractive index (other wavelength) (dimensionless); xn = mol fraction of the nth substance listed
Settings: 94.64 kPa, Liquid, Standard Abbe refractometry

CC(=O)O [acetic acid] + Cc1ccccc1
refractive index
Settings | Wavelength=404.7 nm | Wavelength=435.8 nm | Wavelength=486.1 nm | Wavelength=546.1 nm | Wavelength=587.6 nm | Wavelength=632.8 nm | Wavelength=644 nm | Wavelength=706.5 nm
293.15 K, x1 = 0.146 | 1.51185 | 1.50406 | 1.49519 | 1.48808 | 1.4846 | 1.48156 | 1.48087 | 1.47771
293.15 K, x1 = 0.277 | 1.49627 | 1.48902 | 1.48081 | 1.47416 | 1.47093 | 1.4681 | 1.46744 | 1.46997
293.15 K, x1 = 0.397 | 1.48254 | 1.47576 | 1.4681 | 1.46191 | 1.45889 | 1.45622 | 1.4556 | 1.4528
293.15 K, x1 = 0.506 | 1.46794 | 1.46165 | 1.45457 | 1.44883 | 1.44603 | 1.44355 | 1.44297 | 1.44033
293.15 K, x1 = 0.605 | 1.45403 | 1.44826 | 1.44171 | 1.43642 | 1.43382 | 1.43151 | 1.43097 | 1.42851
293.15 K, x1 = 0.697 | 1.43966 | 1.43437 | 1.4285 | 1.42367 | 1.42129 | 1.41917 | 1.41867 | 1.41635
293.15 K, x1 = 0.782 | 1.42556 | 1.42081 | 1.41549 | 1.41115 | 1.40899 | 1.40703 | 1.40657 | 1.40444
293.15 K, x1 = 0.859 | 1.41172 | 1.40749 | 1.40275 | 1.39886 | 1.39688 | 1.3951 | 1.39469 | 1.39271
293.15 K, x1 = 0.897 | 1.40081 | 1.397 | 1.39273 | 1.38919 | 1.38738 | 1.38572 | 1.38534 | 1.38353
293.15 K, x1 = 0.932 | 1.39511 | 1.39153 | 1.3875 | 1.38415 | 1.38242 | 1.38084 | 1.38047 | 1.37874
293.15 K, x1 = 0.967 | 1.38917 | 1.38582 | 1.38206 | 1.37892 | 1.37727 | 1.37577 | 1.37542 | 1.37375
293.15 K, x1 = 1 | 1.38345 | 1.38034 | 1.37681 | 1.37386 | 1.3723 | 1.37087 | 1.37055 | 1.36896
298.15 K, x1 = 0.146 | 1.50896 | 1.50121 | 1.49239 | 1.48532 | 1.48187 | 1.47884 | 1.47816 | 1.47502
298.15 K, x1 = 0.277 | 1.4934 | 1.48619 | 1.47801 | 1.47142 | 1.46821 | 1.46538 | 1.46473 | 1.46178
298.15 K, x1 = 0.397 | 1.47979 | 1.47305 | 1.46545 | 1.45928 | 1.45629 | 1.45365 | 1.45303 | 1.45023
298.15 K, x1 = 0.506 | 1.46521 | 1.45896 | 1.45191 | 1.44622 | 1.44342 | 1.44095 | 1.44038 | 1.43776
298.15 K, x1 = 0.605 | 1.45129 | 1.44555 | 1.43909 | 1.43383 | 1.43125 | 1.42896 | 1.42842 | 1.42598
298.15 K, x1 = 0.697 | 1.43707 | 1.43182 | 1.42596 | 1.42117 | 1.41881 | 1.41669 | 1.41619 | 1.4139
298.15 K, x1 = 0.782 | 1.42305 | 1.41834 | 1.41304 | 1.40874 | 1.40658 | 1.40463 | 1.40417 | 1.40417
298.15 K, x1 = 0.859 | 1.41005 | 1.40512 | 1.40043 | 1.39655 | 1.3946 | 1.39284 | 1.39242 | 1.39049
298.15 K, x1 = 0.897 | 1.39862 | 1.39482 | 1.3906 | 1.38706 | 1.38527 | 1.38364 | 1.38326 | 1.38144
298.15 K, x1 = 0.932 | 1.39296 | 1.38941 | 1.3854 | 1.38208 | 1.38035 | 1.37878 | 1.37842 | 1.37669
298.15 K, x1 = 0.967 | 1.3871 | 1.38379 | 1.38002 | 1.37691 | 1.37526 | 1.37375 | 1.37341 | 1.37177
298.15 K, x1 = 1 | 1.38126 | 1.37816 | 1.37466 | 1.37174 | 1.37018 | 1.36876 | 1.36844 | 1.36686
303.15 K, x1 = 0.146 | 1.50611 | 1.49841 | 1.48963 | 1.48261 | 1.47918 | 1.47618 | 1.47549 | 1.47237
303.15 K, x1 = 0.277 | 1.4905 | 1.48332 | 1.47522 | 1.46865 | 1.46547 | 1.46268 | 1.46203 | 1.45908
303.15 K, x1 = 0.397 | 1.47698 | 1.47026 | 1.46273 | 1.45661 | 1.45363 | 1.451 | 1.45039 | 1.44761
303.15 K, x1 = 0.506 | 1.46241 | 1.45621 | 1.44918 | 1.44352 | 1.44075 | 1.4383 | 1.43773 | 1.43513
303.15 K, x1 = 0.605 | 1.44837 | 1.44266 | 1.43626 | 1.43107 | 1.42851 | 1.42623 | 1.42569 | 1.42326
303.15 K, x1 = 0.697 | 1.4344 | 1.42918 | 1.42331 | 1.41861 | 1.41625 | 1.41415 | 1.41365 | 1.41136
303.15 K, x1 = 0.782 | 1.42104 | 1.41634 | 1.41106 | 1.40674 | 1.4046 | 1.40267 | 1.40221 | 1.4001
303.15 K, x1 = 0.859 | 1.40698 | 1.40281 | 1.39813 | 1.3943 | 1.39235 | 1.39059 | 1.39018 | 1.38824
303.15 K, x1 = 0.897 | 1.39635 | 1.3926 | 1.38838 | 1.3849 | 1.38309 | 1.38146 | 1.38109 | 1.37929
303.15 K, x1 = 0.932 | 1.3908 | 1.38725 | 1.38329 | 1.37997 | 1.37826 | 1.37671 | 1.37634 | 1.37461
303.15 K, x1 = 0.967 | 1.38499 | 1.38168 | 1.37795 | 1.37485 | 1.37321 | 1.37172 | 1.37138 | 1.36976
303.15 K, x1 = 1 | 1.37917 | 1.37611 | 1.37261 | 1.36968 | 1.36815 | 1.36675 | 1.36643 | 1.36485
